Assay results from patent US9428519B2, “Acylated derivative of homoharringtonine, preparation method therefor, and application thereof” (HANGZHOU BENSHENG PHARMACEUTICAL CO., LTD., priority 2011, dated 2016).
Converted amounts (≈) assume the structure as drawn.

Assays:
[1] = tested on: H9 (acute lymphoblastic leukemia, ALL); experiment: MTT growth inhibition of leukemia cells, 72 h; type: cell-based, human; conditions: MTT
From the text: (§1) Leukemia cell lines: leukemia cell lines: K562/adr (drug-resistant, chronic myeloid leukemia, CML), NB4 (acute promyelocytic leukemia, AML), Kasumi-1 (acute myeloid leukemia M2 type, AML-M2), Jurkat (acute lymphoblastic leukemia, ALL), all of which are donated by Cancer Research Institute of Zhejiang University, China; and H9 (acute lymphoblastic leukemia, ALL), which is purchased from China Center for Type Culture Collection (CCTCC).
(§2) Reagents: The standard sample of homoharringtonine (HHT) is purchased from Taihua Natural Plant Pharmaceutical Co., Ltd., Shaanxi, China, the homoharringtonine derivatives of the present invention.
(§3) Obtaining 6000 well-growing leukemia cells and inoculating them into wells of a 96-well cell culture plate. The culture medium is the 1640 cell culture medium containing 10% fetal bovine serum. After adding the homoharringtonine derivatives of different concentrations and mixing uniformly, placing the plate in a carbon dioxide cell incubator (5% CO2) at 37° C. and incubated for 72 hours. Then the viable cell concentration is determined by the MTT method. In this experiment, the cell viability in control group (not treated with any compound) is set as 100%. On such basis, the cell viability (%) after treatment and the 50% inhibiting concentration of the compound for the leukemia cell growth at 72 hours (IC50 value of 72 hours) are calculated.

[2] = tested on: Jurkat (acute lymphoblastic leukemia, ALL); experiment: MTT growth inhibition of leukemia cells, 72 h; type: cell-based, human
From the text: as §1, §2, §3

[3] = tested on: K562/adr (drug-resistant, chronic myeloid leukemia, CML); experiment: MTT growth inhibition of leukemia cells, 72 h; type: cell-based, human; conditions: MTT
From the text: as §1, §2, §3

[4] = tested on: Kasumi-1 (acute myeloid leukemia M2 type, AML-M2); experiment: MTT growth inhibition of leukemia cells, 72 h; type: cell-based, human
From the text: as §1, §2, §3

[5] = tested on: NB4 (acute promyelocytic leukemia, AML); experiment: MTT growth inhibition of leukemia cells, 72 h; type: cell-based, human; conditions: MTT
From the text: as §1, §2, §3

[6] = tested on: RPMI8226 (multiple myeloma); experiment: MTT growth inhibition of multiple myeloma cells, 72 h; type: cell-based, human
Description: Multiple myeloma and lymphoma cell lines: RPMI8226 (multiple myeloma), purchased from Fuxiang Bio-tech Co. Ltd., Shanghai, China.
as §3

[7] = tested on: A549 (human lung cancer); experiment: MTT growth inhibition of human solid tumor cells, 72 h; type: cell-based
Description: (§4) Human solid tumor cell lines: Hep-2 (laryngeal carcinoma), A549 (human lung cancer), CaES-17 (esophageal cancer cell), PC-3 (prostate cancer), CNE (nasopharyngeal carcinoma cell), and SK-OV-3 (ovarian cancer cell), all of which are purchased from China Center For Type Culture Collection; RKO (human colon adenocarcinoma cell), MGC 803 (human gastric cancer cell), MG63 (osteosarcoma) and U87 MG (malignant glioma cell), all of which are purchased from Fuxiang Bio-tech Co. Ltd., Shanghai, China; PANC-1 (pancreatic cancer), Huh7 (human liver cancer cell), Becap37 (human breast cancer cell), and Hela (human cervical cancer cell), all of which are donated by Cancer Research Institute of Zhejiang University, China.
(§5) Obtaining 4000 well-growing human solid tumor cells and inoculating them into wells of a 96-well cell culture plate. The culture medium is DMEM High Glucose cell culture medium containing 10% fetal bovine serum. The plate is placed in a carbon dioxide cell incubator (5% CO2) at 37° C. and incubated for 24 hours. After adding the homoharringtonine derivatives of different concentration and mixing uniformly, the plate is placed in a carbon dioxide cell incubator (5% CO2) at 37° C. and incubated for 72 hours. Then the viable cell concentration is determined by the MTT method and the cell viability (%) after drug treatment is calculated. In this experiment, the cell viability of control group (not treated with any compound) is set as 100%.

[8] = tested on: Becap37 (human breast cancer cell); experiment: as above; type: cell-based
Description: as §4, §5

[9] = tested on: CNE (nasopharyngeal carcinoma cell); experiment: as above; type: cell-based; conditions: MTT
Description: as §4, §5

[10] = tested on: CaES-17 (esophageal cancer cell); experiment: as above; type: cell-based
Description: as §4, §5

[11] = tested on: Hela (human cervical cancer cell); experiment: as above; type: cell-based; conditions: MTT
Description: as §4, §5

[12] = tested on: Hep-2 (laryngeal carcinoma); experiment: as above; type: cell-based
Description: as §4, §5

[13] = tested on: Huh7 (human liver cancer cell); experiment: as above; type: cell-based
Description: as §4, §5

[14] = tested on: MG63 (osteosarcoma); experiment: as above; type: cell-based
Description: as §4, §5

[15] = tested on: MGC 803 (human gastric cancer cell); experiment: as above; type: cell-based
Description: as §4, §5

[16] = tested on: PANC-1 (pancreatic cancer); experiment: as above; type: cell-based
Description: as §4, §5

[17] = tested on: PC-3 (prostate cancer); experiment: as above; type: cell-based; conditions: MTT
Description: as §4, §5

[18] = tested on: RKO (human colon adenocarcinoma cell); experiment: as above; type: cell-based; conditions: MTT
Description: as §4, §5

[19] = tested on: SK-OV-3 (ovarian cancer cell); experiment: as above; type: cell-based
Description: as §4, §5

[20] = tested on: U87 MG (malignant glioma cell); experiment: as above; type: cell-based
Description: as §4, §5

Compound: COC(=O)C[C@](O)(CCCC(C)(C)OC(=O)C1CC1)C(=O)O[C@@H]1C(OC)=C[C@]23CCCN2CCc2cc4c(cc2[C@H]13)OCO4 [BS-HH-062]
- IC50 ([1]; Homo sapiens): 0.008 mg/L (≈ 0.013 µM)
- IC90 ([1]; Homo sapiens): 0.02 mg/L (≈ 0.0326 µM)
- IC50 ([2]; Homo sapiens, Jurkat): 0.012 mg/L (≈ 0.0196 µM)
- IC90 ([2]; Homo sapiens, Jurkat): ≥ 16 mg/L
- IC50 ([3]; Homo sapiens, K562/Adr): 0.06 mg/L (≈ 0.0978 µM)
- IC90 ([3]; Homo sapiens, K562/Adr): 0.75 mg/L (≈ 1.22 µM)
- IC50 ([4]; Homo sapiens, Kasumi 1, MTT): 0.002 mg/L (≈ 0.00326 µM)
- IC90 ([4]; Homo sapiens, Kasumi 1, MTT): 0.005 mg/L (≈ 0.00815 µM)
- IC50 ([5]; Homo sapiens): 0.004 mg/L (≈ 0.00652 µM)
- IC90 ([5]; Homo sapiens): 0.007 mg/L (≈ 0.0114 µM)
- IC50 ([6]; Homo sapiens, RPMI-8226, MTT): 0.007 mg/L (≈ 0.0114 µM)
- IC90 ([6]; Homo sapiens, RPMI-8226, MTT): 0.029 mg/L (≈ 0.0473 µM)
- IC50 ([7]; Homo sapiens, A549): 0.04 mg/L (≈ 0.0652 µM)
- IC90 ([7]; Homo sapiens, A549): > 16 mg/L
- IC50 ([8]; Homo sapiens): 0.014 mg/L (≈ 0.0228 µM)
- IC90 ([8]; Homo sapiens): 15.6 mg/L (≈ 25.4 µM)
- IC50 ([9]; Homo sapiens): 0.028 mg/L (≈ 0.0456 µM)
- IC90 ([9]; Homo sapiens): > 16 mg/L
- IC50 ([10]; Homo sapiens, CaEs17): 0.058 mg/L (≈ 0.0945 µM)
- IC90 ([10]; Homo sapiens, CaEs17): 16 mg/L (≈ 26.1 µM)
- IC50 ([11]; Homo sapiens, HeLa): 0.026 mg/L (≈ 0.0424 µM)
- IC90 ([11]; Homo sapiens, HeLa): 16 mg/L (≈ 26.1 µM)
- IC50 ([12]; Homo sapiens, HEp-2): 0.015 mg/L (≈ 0.0244 µM)
- IC90 ([12]; Homo sapiens, HEp-2): > 16 mg/L
- IC50 ([13]; Homo sapiens, Huh-7): 0.004 mg/L (≈ 0.00652 µM)
- IC90 ([13]; Homo sapiens, Huh-7): 0.049 mg/L (≈ 0.0798 µM)
- IC50 ([14]; Homo sapiens, MG-63, MTT): 0.012 mg/L (≈ 0.0196 µM)
- IC90 ([14]; Homo sapiens, MG-63, MTT): 0.77 mg/L (≈ 1.25 µM)
- IC50 ([15]; Homo sapiens, MGC-803): 0.015 mg/L (≈ 0.0244 µM)
- IC90 ([15]; Homo sapiens, MGC-803): 0.07 mg/L (≈ 0.114 µM)
- IC50 ([16]; Homo sapiens, PANC-1, MTT): 0.044 mg/L (≈ 0.0717 µM)
- IC90 ([16]; Homo sapiens, PANC-1, MTT): > 16 mg/L
- IC50 ([17]; Homo sapiens): 0.11 mg/L (≈ 0.179 µM)
- IC90 ([17]; Homo sapiens): > 16 mg/L
- IC50 ([18]; Homo sapiens): 0.005 mg/L (≈ 0.00815 µM)
- IC90 ([18]; Homo sapiens): 0.025 mg/L (≈ 0.0407 µM)
- IC50 ([19]; Homo sapiens, SK-OV-3, MTT): 0.12 mg/L (≈ 0.196 µM)
- IC90 ([19]; Homo sapiens, SK-OV-3, MTT): > 16 mg/L
- IC50 ([20]; Homo sapiens, U-87 MG): 0.02 mg/L (≈ 0.0326 µM)
- IC90 ([20]; Homo sapiens, U-87 MG): 0.1 mg/L (≈ 0.163 µM)

Compound: COC(=O)C[C@@](CCCC(C)(C)OC(=O)c1ccccc1)(OC(=O)c1ccccc1)C(=O)O[C@@H]1C(OC)=C[C@]23CCCN2CCc2cc4c(cc2[C@H]13)OCO4 [BS-HH-0732]
- IC50 H9 [1]: 1.3 mg/L (≈ 1.72 µM)
- IC90 H9 [1]: 3.9 mg/L (≈ 5.17 µM)
- IC50 Jurkat [2]: 1.4 mg/L (≈ 1.86 µM)
- IC90 Jurkat [2]: 6.4 mg/L (≈ 8.49 µM)
- IC50 K562/adr [3]: 2.5 mg/L (≈ 3.32 µM)
- IC90 K562/adr [3]: 6.5 mg/L (≈ 8.62 µM)
- IC50 Kasumi-1 ([4]; MTT): 1.35 mg/L (≈ 1.79 µM)
- IC90 Kasumi-1 ([4]; MTT): 3.56 mg/L (≈ 4.72 µM)
- IC50 NB4 [5]: 1.19 mg/L (≈ 1.58 µM)
- IC90 NB4 [5]: 2.47 mg/L (≈ 3.28 µM)
- IC50 RPMI8226 ([6]; MTT): 1.15 mg/L (≈ 1.53 µM)
- IC90 RPMI8226 ([6]; MTT): 3.84 mg/L (≈ 5.09 µM)
- IC50 A549 [7]: 5.4 mg/L (≈ 7.16 µM)
- IC90 A549 [7]: >16 mg/L
- IC50 Becap37 [8]: 2.9 mg/L (≈ 3.85 µM)
- IC90 Becap37 [8]: 12.7 mg/L (≈ 16.8 µM)
- IC50 CNE [9]: 3.91 mg/L (≈ 5.19 µM)
- IC90 CNE [9]: >16 mg/L
- IC50 CaES-17 [10]: 3.93 mg/L (≈ 5.21 µM)
- IC90 CaES-17 [10]: 16 mg/L (≈ 21.2 µM)
- IC50 Hela [11]: 2.61 mg/L (≈ 3.46 µM)
- IC90 Hela [11]: 8.37 mg/L (≈ 11.1 µM)
- IC50 Hep-2 [12]: 3.46 mg/L (≈ 4.59 µM)
- IC90 Hep-2 [12]: >16 mg/L
- IC50 Huh7 [13]: 4.8 mg/L (≈ 6.37 µM)
- IC90 Huh7 [13]: 14.5 mg/L (≈ 19.2 µM)
- IC50 MG 63 ([14]; MTT): 1.34 mg/L (≈ 1.78 µM)
- IC90 MG 63 ([14]; MTT): 9.88 mg/L (≈ 13.1 µM)
- IC50 MGC 803 [15]: 2.7 mg/L (≈ 3.58 µM)
- IC90 MGC 803 [15]: 9.92 mg/L (≈ 13.2 µM)
- IC50 PANC-1 ([16]; MTT): 5.8 mg/L (≈ 7.69 µM)
- IC90 PANC-1 ([16]; MTT): 16 mg/L (≈ 21.2 µM)
- IC50 PC-3 [17]: 3.97 mg/L (≈ 5.27 µM)
- IC90 PC-3 [17]: 16 mg/L (≈ 21.2 µM)
- IC50 RKO [18]: 1.4 mg/L (≈ 1.86 µM)
- IC90 RKO [18]: 5.24 mg/L (≈ 6.95 µM)
- IC50 SK-OV-3 ([19]; MTT): 6.71 mg/L (≈ 8.9 µM)
- IC90 SK-OV-3 ([19]; MTT): >16 mg/L
- IC50 U87 MG [20]: 2 mg/L (≈ 2.65 µM)
- IC90 U87 MG [20]: 8.54 mg/L (≈ 11.3 µM)
